Results reported in patent US9661854B2, “Molecules having pesticidal utility, and intermediates, compositions, and processes, related thereto” (Dow AgroSciences LLC, priority 2015, dated 2017).

Legend:
[1] = tested on: Beet Armyworm (Spodoptera exigua, LAPHEG); assay: Bioassay on Beet Armyworm (BAW), 128-well diet tray assay; assay type: in vivo; conditions: 168 h, 50 μg/cm^2 on artificial diet, second instar larvae, 25° C., five to seven days, average of eight wells, read-out: BAW % Control (or Mortality) rating
Method: (§1) Example A: Bioassays on Beet Armyworm (Spodoptera exigua, LAPHEG) (“BAW”) and Cabbage Looper (Trichoplusia ni, TRIPNI) (“CL”)
(§2) Certain molecules disclosed in this document were tested against BAW and CL using procedures described in the following examples. In the reporting of the results, the “BAW & CL Rating Table” was used (See Table Section).
Bioassays on BAW were conducted using a 128-well diet tray assay. One to five second instar BAW larvae were placed in each well (3 mL) of the diet tray that had been previously filled with 1 mL of artificial diet to which 50 μg/cm^2 of the test molecule (dissolved in 50 μL of 90:10 acetone-water mixture) had been applied (to each of eight wells) and then allowed to dry. Trays were covered with a clear self-adhesive cover, vented to allow gas exchange, and held at 25° C., 14:10 light-dark for five to seven days. Percent mortality was recorded for the larvae in each well; activity in the eight wells was then averaged. The results are indicated in the table entitled “Table ABC: Biological Results” (See Table Section).

[2] = tested on: Cabbage Looper (Trichoplusia ni, TRIPNI); assay: Bioassay on Cabbage Looper (CL), 128-well diet tray assay; assay type: in vivo; conditions: 168 h, 50 μg/cm^2 on artificial diet, second instar larvae, 25° C., five to seven days, average of eight wells, read-out: CL % Control (or Mortality) rating
Method: as §1, §2
Bioassays on CL were conducted using a 128-well diet tray assay. One to five second instar CL larvae were placed in each well (3 mL) of the diet tray that had been previously filled with 1 mL of artificial diet to which 50 μg/cm^2 of the test molecule (dissolved in 50 μL of 90:10 acetone-water mixture) had been applied (to each of eight wells) and then allowed to dry. Trays were covered with a clear self-adhesive cover, vented to allow gas exchange, and held at 25° C., 14:10 light-dark for five to seven days. Percent mortality was recorded for the larvae in each well; activity in the eight wells was then averaged. The results are indicated in the table entitled “Table ABC: Biological Results” (See Table Section).

Row | Structure (SMILES) | mortality at 50 µg/cm2 [1] [%] | mortality at 50 µg/cm2 [2] [%]
1 | Cc1ccc(C(C)C)c(N2C(=O)CS/C2=N\C(=O)Nc2ccc(CCc3ncn(-c4ccc(OC(F)(F)F)cc4)n3)cc2)c1 [F1, (Z)-1-(3-(2-isopropyl-5-methylphenyl)-4-oxothiazolidin-2-ylidene)-3-(4-(2-(1-(4-(trifluoromethoxy)phenyl)-1H-1,2,4-triazol-3-yl)ethyl)phenyl)urea] | 50 to 100 | 50 to 100
2 | Cc1ccc(C(C)C)c(N2C(=O)CS/C2=N\C(=O)Nc2ccc(CCc3ncn(-c4ccc(OC(F)(F)F)cc4)n3)c(C)c2)c1 [F2, (Z)-1-(3-(2-Isopropyl-5-methylphenyl)-4-oxothiazolidin-2-ylidene)-3-(3-methyl-4-(2-(1-(4-(trifluoromethoxy)phenyl)-1H-1,2,4-triazol-3-yl)ethyl)phenyl)urea] | 50 to 100 | 50 to 100
3 | Cc1ccc(F)c(N2C(=O)CS/C2=N\C(=O)Nc2ccc(CCc3ncn(-c4ccc(OC(F)(F)F)cc4)n3)cc2)c1 [F3, (Z)-1-(3-(2-Fluoro-5-methylphenyl)-4-oxothiazolidin-2-ylidene)-3-(4-(2-(1-(4-(trifluoromethoxy)phenyl)-1H-1,2,4-triazol-3-yl)ethyl)phenyl)urea] | 50 to 100 | 50 to 100
4 | Cc1ccc(C(F)(F)F)c(N2C(=O)CS/C2=N\C(=O)Nc2ccc(CCc3ncn(-c4ccc(OC(F)(F)F)cc4)n3)cc2)c1 [F5, (Z)-1-(3-(5-Methyl-2-(trifluoromethyl)phenyl)-4-oxothiazolidin-2-ylidene)-3-(4-(2-(1-(4-(trifluoromethoxy)phenyl)-1H-1,2,4-triazol-3-yl)ethyl)phenyl)urea] | 50 to 100 | 50 to 100
5 | Cc1ccc(Cl)c(N2C(=O)CS/C2=N\C(=O)Nc2ccc(CCc3ncn(-c4ccc(OC(F)(F)F)cc4)n3)cc2)c1 [F6, (Z)-1-(3-(2-Chloro-5-methylphenyl)-4-oxothiazolidin-2-ylidene)-3-(4-(2-(1-(4-(trifluoromethoxy)phenyl)-1H-1,2,4-triazol-3-yl)ethyl)phenyl)urea] | 50 to 100 | 50 to 100
6 | CCCc1ccc(C)cc1N1C(=O)CS/C1=N\C(=O)Nc1ccc(CCc2ncn(-c3ccc(OC(F)(F)F)cc3)n2)cc1 [F7, (Z)-1-(3-(5-Methyl-2-propylphenyl)-4-oxothiazolidin-2-ylidene)-3-(4-(2-(1-(4-(trifluoromethoxy)phenyl)-1H-1,2,4-triazol-3-yl)ethyl)phenyl)urea] | 50 to 100 | 50 to 100
7 | CCOc1ccc(C)cc1N1C(=O)CS/C1=N\C(=O)Nc1ccc(CCc2ncn(-c3ccc(OC(F)(F)F)cc3)n2)cc1 [F8, (Z)-1-(3-(2-Ethoxy-5-methylphenyl)-4-oxothiazolidin-2-ylidene)-3-(4-(2-(1-(4-(trifluoromethoxy)phenyl)-1H-1,2,4-triazol-3-yl)ethyl)phenyl)urea] | 50 to 100 | 50 to 100
8 | Cc1cc(N2C(=O)CS/C2=N\C(=O)Nc2ccc(CCc3ncn(-c4ccc(OC(F)(F)F)cc4)n3)cc2)c(C(C)C)cc1F [F9, (Z)-1-(3-(4-Fluoro-2-isopropyl-5-methylphenyl)-4-oxothiazolidin-2-ylidene)-3-(4-(2-(1-(4-(trifluoromethoxy)phenyl)-1H-1,2,4-triazol-3-yl)ethyl)phenyl)urea] | 50 to 100 | 50 to 100
9 | CCC(C)Oc1ccc(C)cc1N1C(=O)CS/C1=N\C(=O)Nc1ccc(CCc2ncn(-c3ccc(OC(F)(F)F)cc3)n2)cc1 (stereo not shown) [F10, (Z)-1-(3-(2-(sec-Butoxy)-5-methylphenyl)-4-oxothiazolidin-2-ylidene)-3-(4-(2-(1-(4-(trifluoromethoxy)phenyl)-1H-1,2,4-triazol-3-yl)ethyl)phenyl)urea] | 50 to 100 | 50 to 100
10 | Cc1ccc(OC(C)C)c(N2C(=O)CS/C2=N\C(=O)Nc2ccc(CCc3ncn(-c4ccc(OC(F)(F)F)cc4)n3)cc2)c1 [F11, (Z)-1-(3-(2-Isopropoxy-5-methylphenyl)-4-oxothiazolidin-2-ylidene)-3-(4-(2-(1-(4-(trifluoromethoxy)phenyl)-1H-1,2,4-triazol-3-yl)ethyl)phenyl)urea] | 50 to 100 | 50 to 100
11 | Cc1ccc(OC(F)(F)F)c(N2C(=O)CS/C2=N\C(=O)Nc2ccc(CCc3ncn(-c4ccc(OC(F)(F)F)cc4)n3)cc2)c1 [F12, (Z)-1-(3-(5-Methyl-2-(trifluoromethoxy)phenyl)-4-oxothiazolidin-2-ylidene)-3-(4-(2-(1-(4-(trifluoromethoxy)phenyl)-1H-1,2,4-triazol-3-yl)ethyl)phenyl)urea] | 50 to 100 | 50 to 100
12 | Cc1ccc(OCC(F)(F)F)c(N2C(=O)CS/C2=N\C(=O)Nc2ccc(CCc3ncn(-c4ccc(OC(F)(F)F)cc4)n3)cc2)c1 [F13, (Z)-1-(3-(5-Methyl-2-(2,2,2-trifluoroethoxy)phenyl)-4-oxothiazolidin-2-ylidene)-3-(4-(2-(1-(4-(trifluoromethoxy)phenyl)-1H-1,2,4-triazol-3-yl)ethyl)phenyl)urea] | 50 to 100 | 50 to 100
13 | COC(=O)c1cc(CCc2ncn(-c3ccc(OC(F)(F)F)cc3)n2)ccc1NC(=O)/N=C1\SCC(=O)N1c1cc(C)ccc1C(C)C [F16, Methyl (Z)-2-(3-(3-(2-isopropyl-5-methylphenyl)-4-oxothiazolidin-2-ylidene)ureido)-5-(2-(1-(4-(trifluoromethoxy)phenyl)-1H-1,2,4-triazol-3-yl)ethyl)benzoate] | 50 to 100 | 50 to 100
14 | Cc1ccc(C(C)C)c(N2C(=O)CS/C2=N\C(=O)Nc2ccc(CCc3ncn(-c4ccc(OC(F)(F)F)cc4)n3)cc2F)c1 [F17, (Z)-1-(2-Fluoro-4-(2-(1-(4-(trifluoromethoxy)phenyl)-1H-1,2,4-triazol-3-yl)ethyl)phenyl)-3-(3-(2-isopropyl-5-methylphenyl)-4-oxothiazolidin-2-ylidene)urea] | 50 to 100 | 50 to 100
15 | Cc1ccc(C(C)C)c(N2C(=O)CS/C2=N\C(=O)Nc2ccc(CCc3ncn(-c4ccc(OC(F)(F)F)cc4)n3)cc2Cl)c1 [F18, (Z)-1-(2-Chloro-4-(2-(1-(4-(trifluoromethoxy)phenyl)-1H-1,2,4-triazol-3-yl)ethyl)phenyl)-3-(3-(2-isopropyl-5-methylphenyl)-4-oxothiazolidin-2-ylidene)urea] | 50 to 100 | 50 to 100
16 | Cc1ccc(C(C)C)c(N2C(=O)CS/C2=N\C(=O)Nc2c(F)cc(CCc3ncn(-c4ccc(OC(F)(F)F)cc4)n3)cc2F)c1 [F19, (Z)-1-(2,6-Difluoro-4-(2-(1-(4-(trifluoromethoxy)phenyl)-1H-1,2,4-triazol-3-yl)ethyl)phenyl)-3-(3-(2-isopropyl-5-methylphenyl)-4-oxothiazolidin-2-ylidene)urea] | 50 to 100 | 50 to 100
17 | COc1cc(CCc2ncn(-c3ccc(OC(F)(F)F)cc3)n2)ccc1NC(=O)/N=C1\SCC(=O)N1c1cc(C)ccc1C(C)C [F20, (Z)-1-(3-(2-Isopropyl-5-methylphenyl)-4-oxothiazolidin-2-ylidene)-3-(2-methoxy-4-(2-(1-(4-(trifluoromethoxy)phenyl)-1H-1,2,4-triazol-3-yl)ethyl)phenyl)urea] | 50 to 100 | 50 to 100
